# Tested on: hypothalamic neural precursor cells
# Assay: Hypothalamic neurogenesis (BrdU)
# Assay type: in vivo, mouse (C57BL/6)
# Conditions: 10 mg/kg twice daily i.p.
# Procedure: FIG. 27. Example 45 Compound (P7C3) Augments Hypothalamic Neurogenesis. Administration of P7C3 for a one month period of time augments proliferation of hypothalamic neural precursor cells (shown in red) in the arcuate nucleus (ARC), dorsomedial hypothalamus (DMH) and ventralmedial hypothalamus (VMH). Micrographs shown are representative of staining from every third section throughout the hypothalamus in 4-6 mice for each treatment group.
# It was evaluated whether P7C3 might augment hypothalamic neurogenesis by administering either vehicle or P7C3 (10 mg/kg twice daily, i.p.) to nine week old male C57BL/6 mice, starting two days before implantation of 7 day Alzet osmotic minipumps (model 1007d) loaded with BrdU (1 mg/kg). Pumps were connected to a cannula that delivered BrdU at a constant rate into the left lateral ventricle for the seven day period, during which time animals continued to receive either vehicle or P7C3. Pumps were surgically removed at the conclusion of their 7 day operating period, and mice were allowed to survive for 4 more weeks, during which time they continued to receive either vehicle or P7C3. At the end of the 4 week period, mice were deeply anesthetized with intraperitoneal (i.p.) injection of mouse anesthetic cocktail and transcardially perfused with 4% paraformaldehyde (PFA) in phosphate buffered saline (pH 7.4). […]
compound,measurement,value
OC(CNc1ccccc1)Cn1c2ccc(Br)cc2c2cc(Br)ccc21 (stereo not shown) [Example P7C3],hypothalamic neurogenesis (BrdU positive staining),markedly enhances hypothalamic neurogenesis
